Measurements reported in ChEMBL document CHEMBL3885881, “DrugMatrix”.

Species: Rattus norvegicus
Experiment: DrugMatrix - Regimen: Daily Repeat
Type: toxicity, organism-based, Sprague-Dawley
Parameters: regimen Daily Repeat, gender Male, age 6-8 weeks
Conditions: in vivo, po, route oral GAVAGE, vehicle .5 % CMC
[1] = 83 mg/kg, 72 h, tissue Blood, dose level High, time 3 day
[2] = 83 mg/kg, 72 h, tissue Plasma, dose level High, time 3 day
[3] = 83 mg/kg, 120 h, tissue Blood, dose level High, time 5 day
[4] = 83 mg/kg, 120 h, tissue Plasma, dose level High, time 5 day
[5] = […], 72 h, tissue Blood, dose 8.3 mg/Kg, dose level Low, time 3 day
[6] = […], 72 h, tissue Plasma, dose 8.3 mg/Kg, dose level Low, time 3 day
[7] = […], 120 h, tissue Blood, dose 8.3 mg/Kg, dose level Low, time 5 day
[8] = […], 120 h, tissue Plasma, dose 8.3 mg/Kg, dose level Low, time 5 day

## SODIUM ORTHOVANAD
[1]
  ABSOLUTE BASOPHIL: 0 CELLS/uL
  ABSOLUTE EOSINOPHIL: 49.33 CELLS/uL
  ABSOLUTE LYMPHOCYTE: 13060 CELLS/uL
  ABSOLUTE MONOCYTE: 206 CELLS/uL
  ABSOLUTE SEGMENTED NEUTROPHIL: 2051.33 CELLS/uL
  BASOPHIL: 0%
  EOSINOPHIL: 0.33%
  ERYTHROCYTE COUNT: 5.99 x10E6/uL
  LEUKOCYTE COUNT: 15.37 x10E3/uL
  LYMPHOCYTE: 85%
  MEAN CORPUSCULAR HEMOGLOBIN: 23.17 pg
  MEAN CORPUSCULAR HEMOGLOBIN CONCENTRATION: 37.8 G/DL
  NEUTROPHIL: 13.33%
  NUCLEATED RED BLOOD CELLS: 0.67 /100WBC
  PLATELET COUNT: 1409 x10E3/uL
[2]
  ALANINE AMINOTRANSFERASE: 51.33 u/L
  ALKALINE PHOSPHATASE: 333.67 u/L
  ASPARTATE AMINOTRANSFERASE: 81.67 u/L
  BLOOD UREA NITROGEN: 13.33 mg/dL
  CARBON DIOXIDE: 16.67 mmol/L
  CHOLESTEROL: 69 mg/dL
  CREATINE PHOSPHOKINASE: 309.33 u/L
  CREATININE: 0.2 mg/dL
  LACTATE DEHYDROGENASE: 147.67 u/L
  LIPASE: 9 u/L
  PHOSPHORUS: 10.33 mg/dL
  POTASSIUM: 6.71 MEQ/L
  SODIUM: 146.67 MEQ/L
  TOTAL BILIRUBIN: 0.27 mg/dL
  TOTAL PROTEIN: 5.43 G/DL
  URIC ACID: 1.8 mg/dL
[3]
  ABSOLUTE BASOPHIL: 0 CELLS/uL
  ABSOLUTE EOSINOPHIL: 42.5 CELLS/uL
  ABSOLUTE LYMPHOCYTE: 9180 CELLS/uL
  ABSOLUTE MONOCYTE: 133 CELLS/uL
  ABSOLUTE SEGMENTED NEUTROPHIL: 1544.5 CELLS/uL
  BASOPHIL: 0%
  EOSINOPHIL: 0.5%
  ERYTHROCYTE COUNT: 6.11 x10E6/uL
  HEMATOCRIT: 36.85%
  HEMOGLOBIN: 13.8 G/DL
  LEUKOCYTE COUNT: 10.9 x10E3/uL
  LYMPHOCYTE: 84%
  MEAN CORPUSCULAR HEMOGLOBIN: 22.65 pg
  MEAN CORPUSCULAR HEMOGLOBIN CONCENTRATION: 37.45 G/DL
  MEAN CORPUSCULAR VOLUME: 60.35 fL
  MONOCYTE: 1%
  NEUTROPHIL: 14.5%
  NUCLEATED RED BLOOD CELLS: 0 /100WBC
  PLATELET COUNT: 1518 x10E3/uL
[4]
  ALANINE AMINOTRANSFERASE: 55 u/L
  ALBUMIN: 4.2 G/DL
  ALKALINE PHOSPHATASE: 268.5 u/L
  ASPARTATE AMINOTRANSFERASE: 90 u/L
  BLOOD UREA NITROGEN: 15.5 mg/dL
  CARBON DIOXIDE: 32.5 mmol/L
  CHOLESTEROL: 82 mg/dL
  CREATINE PHOSPHOKINASE: 294.5 u/L
  CREATININE: 0.22 mg/dL
  LACTATE DEHYDROGENASE: 221.5 u/L
  LIPASE: 14 u/L
  POTASSIUM: 6.81 MEQ/L
  SODIUM: 147.35 MEQ/L
  TOTAL BILIRUBIN: 0.15 mg/dL
  TOTAL PROTEIN: 6 G/DL
  URIC ACID: 1.65 mg/dL
[5]
  ABSOLUTE BASOPHIL: 0 CELLS/uL
  ABSOLUTE EOSINOPHIL: 0 CELLS/uL
  ABSOLUTE MONOCYTE: 61 CELLS/uL
  ABSOLUTE SEGMENTED NEUTROPHIL: 1531 CELLS/uL
  BASOPHIL: 0%
  EOSINOPHIL: 0%
  ERYTHROCYTE COUNT: 5.33 x10E6/uL
  HEMATOCRIT: 34.23%
  HEMOGLOBIN: 13.1 G/DL
  LEUKOCYTE COUNT: 14.33 x10E3/uL
  LYMPHOCYTE: 89%
  MEAN CORPUSCULAR HEMOGLOBIN: 24.6 pg
  MEAN CORPUSCULAR HEMOGLOBIN CONCENTRATION: 38.27 G/DL
  MONOCYTE: 0.33%
  NEUTROPHIL: 10.67%
  NUCLEATED RED BLOOD CELLS: 0 /100WBC
  PLATELET COUNT: 1191.67 x10E3/uL
[6]
  ALANINE AMINOTRANSFERASE: 51 u/L
  ALBUMIN: 4.1 G/DL
  ALKALINE PHOSPHATASE: 345.67 u/L
  ASPARTATE AMINOTRANSFERASE: 90.67 u/L
  BLOOD UREA NITROGEN: 12.67 mg/dL
  CARBON DIOXIDE: 22 mmol/L
  CHLORIDE: 108.67 MEQ/L
  CHOLESTEROL: 71.67 mg/dL
  CREATINE PHOSPHOKINASE: 295.67 u/L
  CREATININE: 0.21 mg/dL
  LACTATE DEHYDROGENASE: 309 u/L
  LIPASE: 11 u/L
  PHOSPHORUS: 11.73 mg/dL
  POTASSIUM: 6.03 MEQ/L
  TOTAL BILIRUBIN: 0.2 mg/dL
  TOTAL PROTEIN: 5.73 G/DL
  URIC ACID: 1.3 mg/dL
[7]
  ABSOLUTE BASOPHIL: 0 CELLS/uL
  ABSOLUTE EOSINOPHIL: 0 CELLS/uL
  ABSOLUTE LYMPHOCYTE: 10049 CELLS/uL
  ABSOLUTE MONOCYTE: 38 CELLS/uL
  ABSOLUTE SEGMENTED NEUTROPHIL: 579.67 CELLS/uL
  BASOPHIL: 0%
  EOSINOPHIL: 0%
  ERYTHROCYTE COUNT: 5.74 x10E6/uL
  HEMATOCRIT: 36.57%
  LEUKOCYTE COUNT: 10.67 x10E3/uL
  LYMPHOCYTE: 94.33%
  MEAN CORPUSCULAR HEMOGLOBIN: 23.4 pg
  MEAN CORPUSCULAR HEMOGLOBIN CONCENTRATION: 36.67 G/DL
  MONOCYTE: 0.33%
  NEUTROPHIL: 5.33%
  NUCLEATED RED BLOOD CELLS: 0.33 /100WBC
  PLATELET COUNT: 1343.67 x10E3/uL
[8]
  ALANINE AMINOTRANSFERASE: 63.33 u/L
  ALKALINE PHOSPHATASE: 318 u/L
  ASPARTATE AMINOTRANSFERASE: 80 u/L
  CARBON DIOXIDE: 24 mmol/L
  CHOLESTEROL: 69.33 mg/dL
  CREATINE PHOSPHOKINASE: 250 u/L
  CREATININE: 0.18 mg/dL
  GLUCOSE: 176.33 mg/dL
  LACTATE DEHYDROGENASE: 93.33 u/L
  POTASSIUM: 6.41 MEQ/L
  SODIUM: 147.03 MEQ/L
  TOTAL BILIRUBIN: 0.27 mg/dL
  TOTAL PROTEIN: 6.2 G/DL
  URIC ACID: 2.1 mg/dL
